Reference: paper PMC6151550, “Inhibitory Effect of Selaginellins from Selaginella tamariscina (Beauv.) Spring against Cytochrome P450 and Uridine 5′-Diphosphoglucuronosyltransferase Isoforms on Human Liver Microsomes” (Molecules : A Journal of Synthetic Chemistry and Natural …, 2017)
pIC50: −log10 of the molar value.

How the values were obtained:
Format in all cases: in vitro ADME
[1] = molecular target: T1, CYP2C8 (Homo sapiens, UniProt P10632); test: CYP2C8 inhibition (amodiaquine N-deethylase) in human liver microsomes, substrate cocktail LC-MS/MS
T1 construct: the incubation mixtures containing pooled HLMs (0.25 mg/mL, H2630, Xenotech); tissue Xenotech H2630; host or cells: pooled human liver microsomes
T1 sequence (P10632 1-490): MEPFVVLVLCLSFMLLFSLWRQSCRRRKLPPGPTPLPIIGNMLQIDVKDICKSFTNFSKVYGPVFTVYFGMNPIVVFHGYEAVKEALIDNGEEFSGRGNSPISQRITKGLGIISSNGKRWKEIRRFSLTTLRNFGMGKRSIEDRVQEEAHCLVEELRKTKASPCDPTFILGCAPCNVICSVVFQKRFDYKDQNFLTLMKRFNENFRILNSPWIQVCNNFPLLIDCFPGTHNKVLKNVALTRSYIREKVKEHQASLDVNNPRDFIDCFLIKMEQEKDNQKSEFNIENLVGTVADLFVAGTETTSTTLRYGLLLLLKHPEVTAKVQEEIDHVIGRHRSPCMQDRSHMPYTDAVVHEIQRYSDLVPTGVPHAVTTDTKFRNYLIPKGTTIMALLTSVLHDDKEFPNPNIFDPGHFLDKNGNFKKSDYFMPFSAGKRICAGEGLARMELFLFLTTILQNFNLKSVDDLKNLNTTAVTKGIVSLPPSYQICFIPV
Procedure: The inhibitory effects of two selaginellins on the metabolism of ten P450 probe substrates were evaluated using previously reported method with minor modification. Phenacetin O-deethylase, coumarin 7-hydroxylase, bupropion 4-hydroxylase, amodiaquine N-deethylase, tolbutamide 4-hydroxylase, omeprazole 5-hydroxylase, dextromethorphan O-demethylase, chlorzoxazone 6-hydroxylase and midazolam 1′-hydroxylase activities were determined as probe activities for CYP1A2, CYP2A6, CYP2B6, CYP2C8, CYP2C9, CYP2C19, CYP2D6, CYP2E1 and […], respectively, using substrate cocktail incubation and tandem mass spectrometry (Table 2). Selaginellins were dissolved in methanol. The final concentrations of organic solvent (methanol) for the cocktail incubation conditions in all experiments were 1.0% (v/v). In brief, the incubation mixtures containing pooled HLMs (0.25 mg/mL, H2630, Xenotech), P450 probe substrate cocktail, and inhibitor (0, 0.5, 2, 5, 20 and 50 μM) were preincubated at 37 °C for 5 min. The reaction was initiated by adding of the NADPH generating system (3.3 mM G6P, 1.3 mM β-NADP+, 3.3 mM MgCl2, and 1 unit/mL G6PDH) followed by incubation for 15 min at 37 °C. Next, each incubation was stopped by addition of 50 μL ice-cold acetonitrile containing terfenadine (IS). After mixing and centrifugation, aliquots were analyzed by liquid chromatography-tandem mass spectrometry (LC-MS/MS) as previous described. The CYP2J2 inhibitory effects of two selaginellins were also evaluated in pooled HLMs using previously reported method. In brief, the incubation reaction mixtures contained 0.25 mg/mL HLMs, astemizole (1 μM) and inhibitor (0.5–50 μM) in […] phosphate buffer (pH 7.4). The reaction was initiated by the addition of NADPH-generating system and further incubated for 15 min. After reaction termination with cold acetonitrile containing 5 ng/mL terfenadine and centrifugation, aliquots were injected into a liquid chromatography-tandem mass spectrometry system (LC-MS/MS) as described previously (Table 2). All microsomal incubations were performed in triplicate. […]

[2] = molecular target: T2, UGT1A4 (Homo sapiens, UniProt P22310); test: UGT1A4 inhibition (trifluoperazine glucuronidation) in human liver microsomes, cocktail LC-MS/MS
T2 construct: from tissue; host or cells: human liver microsomes
T2 sequence (P22310 29-534): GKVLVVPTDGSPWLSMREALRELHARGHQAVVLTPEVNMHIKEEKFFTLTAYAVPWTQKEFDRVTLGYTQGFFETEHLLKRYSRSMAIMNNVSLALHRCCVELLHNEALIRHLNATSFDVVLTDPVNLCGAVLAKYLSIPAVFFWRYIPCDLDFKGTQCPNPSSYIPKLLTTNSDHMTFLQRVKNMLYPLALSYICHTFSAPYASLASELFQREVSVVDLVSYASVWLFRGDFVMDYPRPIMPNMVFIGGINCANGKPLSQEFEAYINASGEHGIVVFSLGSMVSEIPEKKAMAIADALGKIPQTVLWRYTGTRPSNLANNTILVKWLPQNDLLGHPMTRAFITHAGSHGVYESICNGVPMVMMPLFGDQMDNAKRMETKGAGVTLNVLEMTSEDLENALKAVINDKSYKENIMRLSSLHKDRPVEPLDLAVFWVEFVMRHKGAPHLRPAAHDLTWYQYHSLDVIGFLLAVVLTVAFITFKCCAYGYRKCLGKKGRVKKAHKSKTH
Procedure: (§1) The inhibitory effects of two selaginellins on the metabolism of six UGT probe substrates were evaluated using previously reported method with minor modification. In brief, HLMs (0.25 mg/mL) were activated by incubation in the presence of alamethicin (25 μg/mL) for 15 min on ice. After the addition of UGT isoform-selective substrates and selaginellins (0, 0.5, 2, 5, 20 and 50 μM) the final concentrations of organic solvent (methanol) for the cocktail incubation conditions were 1.0% (v/v). The incubation reaction mixtures were pre-incubated for 5 min. The reaction was initiated by the addition of 5 mM UDPGA and further incubated for 60 min. All reactions were terminated by adding ice-cold acetonitrile containing estrone glucuronide (IS). After mixing and centrifugation, aliquots were injected into a LC-MS/MS as described previously (Table 2). All microsomal incubations were performed in triplicate.
(§2) The IC50 values (concentration of the inhibitor causing 50% inhibition of the original enzyme activity) were calculated using WinNonlin software (Pharsight, Mountain View, CA, USA): percentage of control activity = 100 × [1 − (I/(I + IC50))], where I is the inhibitor concentration, and IC50 is the inflection point on the curve.

[3] = molecular target: T3, UGT1A6 (Homo sapiens, UniProt P19224); test: UGT1A6 inhibition (N-acetylserotonin glucuronidation) in human liver microsomes, cocktail LC-MS/MS
T3 construct: from tissue; host or cells: human liver microsomes
T3 sequence (P19224 27-532): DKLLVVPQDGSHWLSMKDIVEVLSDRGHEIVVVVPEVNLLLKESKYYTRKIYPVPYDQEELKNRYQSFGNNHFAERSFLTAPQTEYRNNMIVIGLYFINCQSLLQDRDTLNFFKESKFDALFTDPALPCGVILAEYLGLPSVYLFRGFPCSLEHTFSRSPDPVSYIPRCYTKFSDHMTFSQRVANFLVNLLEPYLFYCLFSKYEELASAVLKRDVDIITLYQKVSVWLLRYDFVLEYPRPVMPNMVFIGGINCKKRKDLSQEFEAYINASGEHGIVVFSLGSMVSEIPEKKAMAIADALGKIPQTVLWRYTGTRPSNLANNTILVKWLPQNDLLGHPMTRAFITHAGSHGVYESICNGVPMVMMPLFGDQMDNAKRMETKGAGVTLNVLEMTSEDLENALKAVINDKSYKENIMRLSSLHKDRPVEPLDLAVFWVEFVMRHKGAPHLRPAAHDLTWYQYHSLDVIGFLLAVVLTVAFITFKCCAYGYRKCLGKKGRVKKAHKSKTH
Procedure: as §1, §2

Compound `COc1ccc(C(=C2C=CC(=O)C=C2)c2c(-c3ccc(O)cc3)ccc(CO)c2C#Cc2ccc(O)cc2)cc1` [Selaginellin M] has a pIC50 [1] of 6.05, a pIC50 [2] of 5.41 and a pIC50 [3] of 4.44.
In the case of `O=C1C=CC(=C(c2ccc(O)cc2)c2c(-c3ccc(O)cc3)ccc(CO)c2C#Cc2ccc(O)cc2)C=C1` [Selaginellin], the pIC50 [1] was 6.30, the “inhibitory potential for CYP2C8-mediated amodiaquine O-demethylation (class)” value ([1]; human liver microsomes, class by Krippendorff's criteria) was “high (high (IC50 < 1 μM))” and the pIC50 [2] was 5.18. It also gave a pIC50 [3] of 4.60.
